Source: ChEMBL document CHEMBL4422691, “Identification of C-6 as a New Site for Linker Conjugation to the Taccalonolide Microtubule Stabilizers” (J Nat Prod, 2019)
Activity calls are given as the source filed them. No cut-off for these calls is given here.

Legend:
Tubulin (Homo sapiens) [1] = biological target: T1, Tubulin (Homo sapiens) (UniProt P68371+Q9H4B7+P0DPH7+P68366+Q13509+Q71U36+P04350+Q3ZCM7+P07437+P68363+Q9BQE3+Q6PEY2+Q13885+Q9BVA1+Q9BUF5); assay: Induction of microtubule stabilization in human HCC1937 cells assessed as co-localization of compound with microtubule at 5 uM after 24 hrs by fluorescence assay; format: cell-based
HeLa = assay: Antiproliferative activity against human HeLa cells after 48 hrs by sulforhodamine B assay; format: functional, cell-based
Tubulin (Sus scrofa) [2] = biological target: T2, Tubulin (Sus scrofa) (UniProt P02554+P02550); assay: Induction of porcine tubulin polymerization at 5 to 10 uM measured at 1 min interval for 1 hr; format: protein assay
T2 sequence (P02550 whole entry, looked up): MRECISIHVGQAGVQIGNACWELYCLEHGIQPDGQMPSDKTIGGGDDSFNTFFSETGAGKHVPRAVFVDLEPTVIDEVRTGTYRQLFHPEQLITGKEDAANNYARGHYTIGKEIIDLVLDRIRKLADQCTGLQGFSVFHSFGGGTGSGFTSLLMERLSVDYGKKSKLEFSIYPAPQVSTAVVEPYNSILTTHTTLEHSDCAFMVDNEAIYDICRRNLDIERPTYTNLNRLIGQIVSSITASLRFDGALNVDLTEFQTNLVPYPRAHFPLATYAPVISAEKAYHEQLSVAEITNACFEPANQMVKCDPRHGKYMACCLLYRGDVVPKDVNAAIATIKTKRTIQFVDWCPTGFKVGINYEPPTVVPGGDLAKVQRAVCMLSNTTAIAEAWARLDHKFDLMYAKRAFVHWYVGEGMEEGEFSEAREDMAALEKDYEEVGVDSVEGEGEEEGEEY
T2 sequence (P02554 whole entry, looked up): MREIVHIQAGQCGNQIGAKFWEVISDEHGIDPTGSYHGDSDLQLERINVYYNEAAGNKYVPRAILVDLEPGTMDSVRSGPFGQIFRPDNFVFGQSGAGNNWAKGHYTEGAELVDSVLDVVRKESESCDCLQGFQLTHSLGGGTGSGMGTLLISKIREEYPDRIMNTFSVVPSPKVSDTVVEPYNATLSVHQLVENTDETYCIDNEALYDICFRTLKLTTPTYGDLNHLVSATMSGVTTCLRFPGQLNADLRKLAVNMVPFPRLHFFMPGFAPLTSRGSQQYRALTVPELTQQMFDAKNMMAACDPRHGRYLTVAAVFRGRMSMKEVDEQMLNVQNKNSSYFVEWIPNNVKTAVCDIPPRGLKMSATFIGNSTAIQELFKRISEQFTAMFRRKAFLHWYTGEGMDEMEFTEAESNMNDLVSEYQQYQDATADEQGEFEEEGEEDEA

Tubulin (Homo sapiens) [3] = biological target: T1, Tubulin (Homo sapiens); assay: Induction of microtubule stabilization in human HCC1937 cells assessed as bundling of microtubules at 5 uM after 24 hrs by immunofluorescence assay; format: cell-based
[4] = Stability of the compound in aqueous solution after 24 hrs; format: physicochemical; settings: buffer
Tubulin (Homo sapiens) [5] = biological target: T1, Tubulin (Homo sapiens); assay: Induction of microtubule stabilization in human HCC1937 cells at 5 uM after 6 hrs by live cell fluorescence imaging; format: cell-based
Tubulin (Sus scrofa) [6] = biological target: T2, Tubulin (Sus scrofa); assay: Induction of porcine tubulin polymerization measured at 1 min interval for 1 hr; format: protein assay

Structure (SMILES)	Activity (Tubulin (Homo sapiens) [1])	IC50 (HeLa) [nM]	Activity (Tubulin (Sus scrofa) [2])	Activity (Tubulin (Homo sapiens) [3])	Stability [4]	Activity (Tubulin (Homo sapiens) [5])	Activity (Tubulin (Sus scrofa) [6])
CC(=O)O[C@H]1[C@H]2[C@@H]([C@@H](O)[C@@H](OC(=O)CCCCn3cc(COc4ccc5c(c4)Oc4cc(O)ccc4C54OC(=O)c5ccccc54)nn3)[C@H]3C[C@@H]4O[C@@H]4[C@H](OC(C)=O)[C@]23C)[C@@H]2[C@@H](O)[C@@H]3[C@H]([C@H](C)[C@H]4O[C@]45OC(=O)[C@@](C)(O)[C@]35C)[C@@]2(C)[C@H]1OC(C)=O (some centres not stated)	Active	2500	Active	Active	Stable	Active	
CC(=O)O[C@H]1[C@H]2[C@H]([C@@H]3[C@@H](O)[C@@H]4[C@H]([C@H](C)[C@@H]5O[C@@]56OC(=O)[C@@](C)(O)[C@]46C)[C@@]3(C)[C@H]1OC(C)=O)[C@@H](O)C(=O)[C@H]1C[C@@H]3O[C@@H]3[C@H](OC(C)=O)[C@]21C							Dose-dependent effect
